Tests used:
Integrin alpha-V/beta-3 = Integrin alpha-V/beta-3 (Homo sapiens, UniProt P05106+P06756); assay: Inhibition of binding to human integrin receptor alpha V beta3; format: protein-complex assay
[1] = Clearance after oral and iv dosing in dogs; format: ADME, organism-based, Canis lupus familiaris; conditions: dog, in vivo, read-out: CI
[2] = Bioavailability in dog; format: ADME, organism-based, Canis lupus familiaris; conditions: in vivo

Chain of Integrin alpha-V/beta-3 (P05106 27-788 limits assumed): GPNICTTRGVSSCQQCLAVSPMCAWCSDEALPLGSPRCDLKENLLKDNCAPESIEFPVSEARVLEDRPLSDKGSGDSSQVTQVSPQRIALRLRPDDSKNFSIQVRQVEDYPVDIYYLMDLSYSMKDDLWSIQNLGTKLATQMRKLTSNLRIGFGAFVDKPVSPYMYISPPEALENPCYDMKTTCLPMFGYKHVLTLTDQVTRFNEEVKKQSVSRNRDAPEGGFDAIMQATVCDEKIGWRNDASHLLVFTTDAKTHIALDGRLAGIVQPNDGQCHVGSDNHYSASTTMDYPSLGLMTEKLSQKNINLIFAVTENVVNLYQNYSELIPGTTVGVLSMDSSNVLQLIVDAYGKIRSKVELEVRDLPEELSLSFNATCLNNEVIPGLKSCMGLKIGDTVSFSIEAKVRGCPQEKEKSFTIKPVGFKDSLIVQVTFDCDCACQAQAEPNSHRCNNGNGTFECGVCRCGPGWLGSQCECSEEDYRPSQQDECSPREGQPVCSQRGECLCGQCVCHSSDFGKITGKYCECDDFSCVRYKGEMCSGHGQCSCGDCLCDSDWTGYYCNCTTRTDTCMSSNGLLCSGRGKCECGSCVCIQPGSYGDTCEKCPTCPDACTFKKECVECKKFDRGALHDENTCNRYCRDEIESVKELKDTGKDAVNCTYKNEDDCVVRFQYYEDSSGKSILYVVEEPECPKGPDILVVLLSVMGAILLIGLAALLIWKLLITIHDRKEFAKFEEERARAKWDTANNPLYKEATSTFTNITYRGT
Chain of Integrin alpha-V/beta-3 (P06756 31-889 limits assumed): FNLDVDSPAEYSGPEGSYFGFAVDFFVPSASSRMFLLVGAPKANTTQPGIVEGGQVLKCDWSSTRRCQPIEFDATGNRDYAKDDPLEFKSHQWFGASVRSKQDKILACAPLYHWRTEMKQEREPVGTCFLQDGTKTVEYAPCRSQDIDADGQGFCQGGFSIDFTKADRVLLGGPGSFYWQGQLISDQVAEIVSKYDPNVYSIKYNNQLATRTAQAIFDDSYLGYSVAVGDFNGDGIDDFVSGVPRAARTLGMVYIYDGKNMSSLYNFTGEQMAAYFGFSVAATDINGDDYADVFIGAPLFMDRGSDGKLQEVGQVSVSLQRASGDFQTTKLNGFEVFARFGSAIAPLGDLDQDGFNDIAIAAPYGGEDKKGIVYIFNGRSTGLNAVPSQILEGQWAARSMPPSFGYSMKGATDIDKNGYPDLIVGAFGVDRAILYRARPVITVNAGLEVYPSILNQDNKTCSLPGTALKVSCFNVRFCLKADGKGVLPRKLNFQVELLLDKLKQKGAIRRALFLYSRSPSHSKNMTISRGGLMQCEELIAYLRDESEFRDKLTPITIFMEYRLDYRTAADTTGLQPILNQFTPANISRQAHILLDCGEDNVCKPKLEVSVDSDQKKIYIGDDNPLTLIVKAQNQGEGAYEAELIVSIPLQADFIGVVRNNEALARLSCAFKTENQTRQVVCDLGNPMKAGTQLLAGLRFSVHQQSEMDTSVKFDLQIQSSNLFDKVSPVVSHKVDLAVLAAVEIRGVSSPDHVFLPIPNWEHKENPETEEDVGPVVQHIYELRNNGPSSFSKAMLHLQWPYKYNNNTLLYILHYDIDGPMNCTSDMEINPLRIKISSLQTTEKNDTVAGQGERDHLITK
Chain of Integrin alpha-V/beta-3 (P06756 891-1048 limits assumed): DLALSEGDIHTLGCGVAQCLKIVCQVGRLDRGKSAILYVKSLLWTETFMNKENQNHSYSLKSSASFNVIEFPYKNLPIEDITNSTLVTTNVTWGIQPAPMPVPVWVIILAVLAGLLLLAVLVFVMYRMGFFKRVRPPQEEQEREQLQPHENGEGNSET

IC50 (Integrin alpha-V/beta-3)	clearance [1]	bioavailability [2]	Compound
10900 pM			O=C(CCCCc1ccc2c(n1)NCCC2)NCC(C(=O)O)c1cccc(F)c1 (stereo not given)
720 pM	18.9 mL/min/kg	1.1%	O=C(CCC1CCc2cc3c(nc2C1)NCCC3)NCC(C(=O)O)c1ccc2c(c1)OCC2 (stereo not given)
740 pM			CN(CC(C(=O)O)c1ccc2c(c1)OCC2)C(=O)CCCCc1ccc2c(n1)NCCC2 (stereo not given)
820 pM			O=C(CCCCc1ccc2c(n1)NCCC2)NCC(C(=O)O)c1cnc2ccccc2c1 (stereo not given)
1010 pM	6.6 mL/min/kg	47%	O=C(CCCCc1ccc2c(n1)NCCC2)NCC(C(=O)O)c1ccc2c(c1)OCC2 (stereo not given)
1070 pM			O=C(O)C[C@H](NC(=O)CCCCc1ccc2c(n1)NCCC2)c1cnc2ccccc2c1
84000 pM			O=C(O)C[C@H](NC(=O)CCCCc1ccc2c(n1)NCCC2)c1ccccc1
490 pM			CN(CC(C(=O)O)c1ccc2c(c1)OCC2)C(=O)CCCCc1nc2c(cc1C1CC1)CCCN2 (stereo not given)
57400 pM			O=C(CCCCc1ccc2c(n1)NCCC2)NCC(C(=O)O)c1ccccc1 (stereo not given)
290 pM	13.7 mL/min/kg	40%	O=C(CCCCc1nc2c(cc1C1CC1)CCCN2)NCC(C(=O)O)c1ccc2c(c1)OCC2 (stereo not given)
350 pM	10.3 mL/min/kg	18%	CN(CC(C(=O)O)c1ccc2c(c1)OCC2)C(=O)CCC1CCc2cc3c(nc2C1)NCCC3 (stereo not given)
	2 mL/min/kg		O=C(O)C[C@H](NC(=O)CCCCc1ccc2c(n1)NCCC2)c1ccc2c(c1)OCC2
